Results as given in ChEMBL document CHEMBL1201862, “PubChem BioAssay data set” (2004).
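96-well plates; 48 h exposure; 5 concentrations. Endpoints by linear interpolation between flanking doses. Not reached: highest tested concentration assigned. GI50 marks 50% less growth.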 Calls of active or inactive are those of the source. No stated cut-off is given here; in the data, active = GI50 up to about 1.1 µM and inactive = higher.

What was measured:
Experiment in all cases: growth of human tumour cells (NCI), 48 h
A549 = system: A549
NCI-H522 = system: NCI-H522
NCI/ADR-RES = system: NCI/ADR-RES
786-0 = system: 786-0
SNB-19 = system: SNB-19
COLO 205 = system: COLO 205
OVCAR-8 = system: OVCAR-8
UACC-257 = system: UACC-257
UACC-62 = system: UACC-62
MCF7 = system: MCF7
HCC 2998 = system: HCC 2998
T47D = system: T47D
Hs-578T = system: Hs-578T
Malme-3M = system: Malme-3M
HOP-92 = system: HOP-92
A498 = system: A498
SN12C = system: SN12C
SW-620 = system: SW-620
CAKI-1 = system: CAKI-1
M14 = system: M14
EKVX = system: EKVX
K562 = system: K562
LOX IMVI = system: LOX IMVI
NCI-H23 = system: NCI-H23
OVCAR-3 = system: OVCAR-3
SF-295 = system: SF-295
SK-MEL-5 = system: SK-MEL-5
MDA-MB-231 = system: MDA-MB-231
SK-MEL-2 = system: SK-MEL-2
OVCAR-4 = system: OVCAR-4
SK-OV-3 = system: SK-OV-3
HL-60 = system: HL-60
SNB-75 = system: SNB-75
HT-29 = system: HT-29
U-251 = system: U-251
IGROV-1 = system: IGROV-1
KM12 = system: KM12
NCI-H460 = system: NCI-H460
OVCAR-5 = system: OVCAR-5
SF-539 = system: SF-539
ACHN = system: ACHN
HCT-15 = system: HCT-15
CCRF-CEM = system: CCRF-CEM
MDA-N = system: MDA-N
HOP-62 = system: HOP-62
HCT-116 = system: HCT-116
DU-145 = system: DU-145
UO-31 = system: UO-31
RPMI-8226 = system: RPMI-8226
NCI-H226 = system: NCI-H226
SR = system: SR
TK-10 = system: TK-10
BT-549 = system: BT-549
MOLT-4 = system: MOLT-4
MDA-MB-435 = system: MDA-MB-435
PC-3 = system: PC-3
SK-MEL-28 = system: SK-MEL-28
RXF 393 = system: RXF 393
SF-268 = system: SF-268

`COc1cc([C@@H]2c3cc4c(cc3[C@@H](Nc3ccc(NC(=O)c5cc(NC(=O)c6cc([N+](=O)[O-])cn6C)cn5C)cc3)[C@H]3COC(=O)[C@H]23)OCO4)cc(OC)c1O` was tested, and the GI50 (A549) was 0.239 µM (active), the GI50 (NCI-H522) was 0.261 µM (active) and the GI50 (NCI/ADR-RES) was 0.573 µM (active). For the same compound, the GI50 (786-0) was 0.593 µM (active), the GI50 (SNB-19) was 15.8 µM (inactive) and the GI50 (COLO 205) was 2.31 µM (inactive). The GI50 (OVCAR-8) was 0.76 µM (active), the GI50 (UACC-257) was 0.687 µM (active) and the GI50 (UACC-62) was 0.453 µM (active). For the same compound, the GI50 (MCF7) was 0.047 µM (active), the GI50 (HCC 2998) was 6.04 µM (inactive) and the GI50 (T47D) was 31.1 µM (inactive). The GI50 (Hs-578T) was > 48.4 µM (inactive), the GI50 (Malme-3M) was 4.35 µM (inactive) and the GI50 (HOP-92) was 0.885 µM (active). For the same compound, the GI50 (A498) was 1.35 µM (inactive), the GI50 (SN12C) was 3.73 µM (inactive) and the GI50 (SW-620) was 2.72 µM (inactive). The GI50 (CAKI-1) was 0.323 µM (active), the GI50 (M14) was 1.78 µM (inactive) and the GI50 (EKVX) was > 40.1 µM (inactive). For the same compound, the GI50 (K562) was 0.0493 µM (active), the GI50 (LOX IMVI) was 0.274 µM (active) and the GI50 (NCI-H23) was 0.465 µM (active). For the same compound, the GI50 (OVCAR-3) was > 49.4 µM (inactive), the GI50 (SF-295) was 1.57 µM (inactive) and the GI50 (SK-MEL-5) was 0.188 µM (active). For the same compound, the GI50 (MDA-MB-231) was > 38.8 µM (inactive), the GI50 (SK-MEL-2) was > 100 µM (inactive) and the GI50 (OVCAR-4) was > 43.7 µM (inactive). For the same compound, the GI50 (SK-OV-3) was 11.6 µM (inactive), the GI50 (HL-60) was 0.16 µM (active) and the GI50 (SNB-75) was 4.89 µM (inactive). For the same compound, the GI50 (HT-29) was 0.355 µM (active), the GI50 (U-251) was 10.3 µM (inactive) and the GI50 (IGROV-1) was 0.216 µM (active). For the same compound, the GI50 (KM12) was 12.5 µM (inactive), the GI50 (NCI-H460) was 0.0303 µM (active) and the GI50 (OVCAR-5) was > 61.4 µM (inactive). The GI50 (SF-539) was 0.364 µM (active), the GI50 (ACHN) was 0.2 µM (active) and the GI50 (HCT-15) was 5.73 µM. For the same compound, the GI50 (CCRF-CEM) was 0.154 µM (active), the GI50 (MDA-N) was 0.0308 µM (active) and the GI50 (HOP-62) was 0.361 µM (active). The GI50 (HCT-116) was 0.149 µM (active), the GI50 (DU-145) was 0.374 µM (active) and the GI50 (UO-31) was 5.22 µM (inactive). The GI50 (RPMI-8226) was 0.0324 µM (active), the GI50 (NCI-H226) was 0.334 µM (active) and the GI50 (SR) was 0.0159 µM (active). The GI50 (TK-10) was > 65.8 µM (inactive), the GI50 (BT-549) was > 100 µM (inactive) and the GI50 (MOLT-4) was < 0.0209 µM (active).

For `CSC1=N/C(=C\c2c[nH]c3ccccc23)C(=O)N1`, the GI50 (A549) was 69.8 µM (inactive), the GI50 (NCI/ADR-RES) was 85.7 µM (inactive) and the GI50 (786-0) was 84.3 µM (inactive). The GI50 (SNB-19) was > 100 µM (inactive), the GI50 (COLO 205) was 63 µM (inactive) and the GI50 (OVCAR-8) was > 100 µM (inactive). For the same compound, the GI50 (UACC-257) was > 100 µM (inactive), the GI50 (UACC-62) was 92.9 µM (inactive) and the GI50 (MCF7) was 28.8 µM (inactive). The GI50 (HCC 2998) was 21.9 µM (inactive), the GI50 (T47D) was 53.2 µM (inactive) and the GI50 (Hs-578T) was 43.4 µM (inactive). For the same compound, the GI50 (Malme-3M) was 36.1 µM (inactive), the GI50 (HOP-92) was > 100 µM (inactive) and the GI50 (A498) was 38.1 µM (inactive). For the same compound, the GI50 (MDA-MB-435) was 55.2 µM (inactive), the GI50 (PC-3) was 44.7 µM (inactive) and the GI50 (SN12C) was > 100 µM (inactive). For the same compound, the GI50 (SK-MEL-28) was > 100 µM (inactive), the GI50 (SW-620) was > 100 µM (inactive) and the GI50 (RXF 393) was 92.7 µM (inactive). For the same compound, the GI50 (SF-268) was 71 µM (inactive), the GI50 (M14) was 73.6 µM (inactive) and the GI50 (K562) was 75.9 µM (inactive). The GI50 (LOX IMVI) was 78.3 µM (inactive), the GI50 (NCI-H23) was > 100 µM (inactive) and the GI50 (OVCAR-3) was 85.3 µM (inactive). For the same compound, the GI50 (SK-MEL-5) was 39.4 µM (inactive), the GI50 (MDA-MB-231) was 52.6 µM (inactive) and the GI50 (SK-MEL-2) was 35.8 µM (inactive). The GI50 (OVCAR-4) was 71.4 µM (inactive), the GI50 (SK-OV-3) was > 100 µM (inactive) and the GI50 (HL-60) was 18.3 µM (inactive). The GI50 (SNB-75) was 27.7 µM (inactive), the GI50 (HT-29) was 31.6 µM (inactive) and the GI50 (U-251) was 56.4 µM (inactive). For the same compound, the GI50 (IGROV-1) was 67.6 µM (inactive), the GI50 (NCI-H460) was 49.7 µM (inactive) and the GI50 (OVCAR-5) was > 100 µM (inactive). The GI50 (SF-539) was > 100 µM (inactive), the GI50 (ACHN) was 44.4 µM (inactive) and the GI50 (HCT-15) was 75.3 µM. For the same compound, the GI50 (CCRF-CEM) was > 100 µM (inactive), the GI50 (HOP-62) was 76.9 µM (inactive) and the GI50 (HCT-116) was 70.3 µM (inactive). The GI50 (DU-145) was 96.8 µM (inactive), the GI50 (UO-31) was 35.8 µM (inactive) and the GI50 (RPMI-8226) was 77.4 µM (inactive). The GI50 (NCI-H226) was > 100 µM (inactive), the GI50 (SR) was 97.7 µM (inactive) and the GI50 (TK-10) was 66.7 µM (inactive). The GI50 (BT-549) was > 100 µM (inactive) and the GI50 (MOLT-4) was > 100 µM (inactive).

In the case of `CCOC(=O)c1sc2c(c1O)c(=O)n(-c1ccccc1)c(=S)n2-c1ccccc1`, the GI50 (A549) is reported as 55.3 µM (inactive), the GI50 (NCI-H522) is reported as 46.6 µM (inactive) and the GI50 (786-0) is reported as > 100 µM (inactive). For the same compound, the GI50 (SNB-19) was > 100 µM (inactive), the GI50 (COLO 205) was > 100 µM (inactive) and the GI50 (OVCAR-8) was 54.7 µM (inactive). The GI50 (UACC-257) was > 100 µM (inactive), the GI50 (UACC-62) was 84.3 µM (inactive) and the GI50 (MCF7) was 67.6 µM (inactive). For the same compound, the GI50 (HCC 2998) was > 100 µM (inactive), the GI50 (T47D) was > 100 µM (inactive) and the GI50 (Hs-578T) was > 100 µM (inactive). The GI50 (Malme-3M) was > 100 µM (inactive), the GI50 (HOP-92) was 86.1 µM (inactive) and the GI50 (MDA-MB-435) was > 100 µM (inactive). The GI50 (SN12C) was 61.1 µM (inactive), the GI50 (SK-MEL-28) was > 100 µM (inactive) and the GI50 (SW-620) was 99.3 µM (inactive). For the same compound, the GI50 (RXF 393) was > 100 µM (inactive), the GI50 (SF-268) was > 100 µM (inactive) and the GI50 (M14) was > 100 µM (inactive). The GI50 (K562) was 42.8 µM (inactive), the GI50 (LOX IMVI) was > 100 µM (inactive) and the GI50 (NCI-H23) was 91.4 µM (inactive). The GI50 (OVCAR-3) was 51.1 µM (inactive), the GI50 (SF-295) was 35.5 µM (inactive) and the GI50 (SK-MEL-5) was > 100 µM (inactive). The GI50 (MDA-MB-231) was > 100 µM (inactive), the GI50 (SK-MEL-2) was > 100 µM (inactive) and the GI50 (OVCAR-4) was > 100 µM (inactive). For the same compound, the GI50 (HL-60) was 35.1 µM (inactive), the GI50 (SNB-75) was 37.5 µM (inactive) and the GI50 (HT-29) was 80.5 µM (inactive). For the same compound, the GI50 (U-251) was 76.6 µM (inactive), the GI50 (IGROV-1) was > 100 µM (inactive) and the GI50 (KM12) was 46.7 µM (inactive). For the same compound, the GI50 (NCI-H460) was > 100 µM (inactive), the GI50 (OVCAR-5) was > 100 µM (inactive) and the GI50 (ACHN) was 81.1 µM (inactive). The GI50 (HCT-15) was 78 µM, the GI50 (CCRF-CEM) was 32.7 µM (inactive) and the GI50 (MDA-N) was > 100 µM (inactive). For the same compound, the GI50 (DU-145) was 71.8 µM (inactive), the GI50 (UO-31) was 87.3 µM (inactive) and the GI50 (RPMI-8226) was 28.2 µM (inactive). For the same compound, the GI50 (NCI-H226) was > 100 µM (inactive), the GI50 (SR) was 10.8 µM (inactive) and the GI50 (TK-10) was > 100 µM (inactive). For the same compound, the GI50 (BT-549) was 56.6 µM (inactive).
